Data on eleven compounds can be found in US6673938B1, “Substituted pyridine herbicides” (Syngenta Participations AG, priority 1998, dated 2004).

Assay [1] has as its system Monocotyledonous and dicotyledonous test plants. Put plainly: Herbicidal action before emergence of the plants (pre-emergence action). In kind it is in vivo. Particulars: evaluated after 3 weeks, nine-step scale; for pre-emergence action, Cyperus / pre-emergence action, Ipomoea / pre-emergence action, Setaria / pre-emergence action, Sinapis / pre-emergence action, Solanum / pre-emergence action, Stellaria: 2000 g/ha. The procedure:
Monocotyledonous and dicotyledonous test plants are sown in standard soil in plastic pots. Immediately after sowing, the test substances as aqueous suspensions (prepared with a 25% wettable powder (Example F3, b) in accordance with WO 97/34485) or as emulsions (prepared with a 25% emulsion concentrate (Example F1, c)) are sprayed on at a rate of 2 kg of a.i./ha or 250 g of a.i./ha (500 l of water/ha). The test plants are then grown in the greenhouse under optimal conditions. After a test period of 3 weeks, the experiment is evaluated with reference to a nine-step scale (1=complete damage, 9=no effect). Score figures of 1 to 4 (in particular 1 to 3) mean a good to very good herbicidal action.

Assay [2] has the same test system. Put plainly: Post-emergence herbicidal action. In kind it is in vivo. Particulars: evaluated after approximately 18 days; for Post-emergence action, Ipomoea / Post-emergence action, Lolium / Post-emergence action, Setaria / Post-emergence action, Sinapis / Post-emergence action, Solanum / Post-emergence action, Stellaria: 2000 g/ha, sprayed in 4- to 6-leaf stage, nine-step scale. The essentials:
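Greenhouse plants sprayed at the 4- to 6-leaf stage with test substance as wettable-powder suspension or emulsion-concentrate emulsion, 2 kg or 250 g a.i./ha in 500 l water/ha. Scored after about 18 days on a nine-step scale (1=complete damage, 9=no effect).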

As for `CCOC(=O)C1C(O)=C(C(=O)c2ccc(C(F)(F)F)nc2C)C(=O)CC1C` (stereo not shown) [Compound A2-B145], the “Pre-emergence action, Abutilon” value in assay [1] (Abutilon, 250 g/ha) is on record as 2. Besides, the “Pre-emergence action, Amaranthus” value in assay [1] (Amaranthus, 250 g/ha) is reported as 3. In assay [1] (Chenop., 250 g/ha), the “Pre-emergence action, Chenop.” value is recorded as 1. In addition, the “Pre-emergence action, Digitaria” value in assay [1] (Digitaria, 250 g/ha) is 2. Also, the “Pre-emergence action, Echino.” value in assay [1] (Echino., 250 g/ha) is 4. Further, in assay [1] (Panicum, 250 g/ha), the “Pre-emergence action, Panicum” value turned out to be 2. Moreover, in assay [2] (Abutilon, 250 g/ha, sprayed at 4- to 6-leaf stage), the “Post-emergence action: Abutilon (score, nine-step scale)” value came to 3. In addition, the “Post-emergence action: Chenop. (score, nine-step scale)” value in assay [2] (Chenop., 250 g/ha, sprayed at 4- to 6-leaf stage) worked out at 1. Besides, the “Post-emergence action: Digitaria (score, nine-step scale)” value in assay [2] (Digitaria, 250 g/ha, sprayed at 4- to 6-leaf stage) is 2. Besides, the “Post-emergence action: Echino. (score, nine-step scale)” value in assay [2] (Echino., 250 g/ha, sprayed at 4- to 6-leaf stage) stood at 2. Further, the “Post-emergence action: Ipopur. (score, nine-step scale)” value in assay [2] (Ipopur., 250 g/ha, sprayed at 4- to 6-leaf stage) came to 3. Besides, in assay [2] (Panicum, 250 g/ha, sprayed at 4- to 6-leaf stage), the “Post-emergence action: Panicum (score, nine-step scale)” value is 2. The “Post-emergence action: Xanth. (score, nine-step scale)” value in assay [2] (Xanth., 250 g/ha, sprayed at 4- to 6-leaf stage) was determined as 3.

As to `Cc1c(C(=O)C2=C(O)C(C)(C)C(=O)C(C)(C)C2=O)ccc(C(F)(F)F)[n+]1[O-]` [Compound A1210-B354], in assay [1], the “pre-emergence action, Cyperus” value is 2; the “pre-emergence action, Ipomoea” value worked out at 3; the “pre-emergence action, Setaria” value is reported as 2; the “pre-emergence action, Sinapis” value came out at 1. In assay [1], the “pre-emergence action, Solanum” value was determined as 1 and the “pre-emergence action, Stellaria” value is 2. Besides, in assay [2], the “Post-emergence action, Ipomoea” value turned out to be 2; the “Post-emergence action, Lolium” value was 2; the “Post-emergence action, Setaria” value is listed as 2; the “Post-emergence action, Sinapis” value came out at 1. In addition, in assay [2], the “Post-emergence action, Solanum” value came to 1 and the “Post-emergence action, Stellaria” value was 2.

In the case of `CCc1nc(C(F)(F)F)ccc1C(=O)C1=C(O)CCCC1=O` [Compound A3-B1], in assay [1], the “pre-emergence action, Cyperus” value is recorded as 2; the “pre-emergence action, Ipomoea” value amounted to 2; the “pre-emergence action, Setaria” value was 4; the “pre-emergence action, Sinapis” value worked out at 2. In assay [1], the “pre-emergence action, Solanum” value was determined as 3 and the “pre-emergence action, Stellaria” value was determined as 2. Besides, in assay [2], the “Post-emergence action, Ipomoea” value amounted to 1; the “Post-emergence action, Lolium” value turned out to be 3; the “Post-emergence action, Setaria” value came out at 2; the “Post-emergence action, Sinapis” value amounted to 1. In addition, in assay [2], the “Post-emergence action, Solanum” value worked out at 1 and the “Post-emergence action, Stellaria” value was found to be 2.

Regarding `Cc1nc(C(F)(F)C(F)(F)F)ccc1C(=O)C1=C(O)CCCC1=O` [Compound A34-B1], in assay [1], the “pre-emergence action, Cyperus” value came to 1; the “pre-emergence action, Ipomoea” value was 2; the “pre-emergence action, Setaria” value is on record as 2; the “pre-emergence action, Sinapis” value was 2. Moreover, in assay [1], the “pre-emergence action, Solanum” value worked out at 2 and the “pre-emergence action, Stellaria” value turned out to be 3. Besides, in assay [2], the “Post-emergence action, Ipomoea” value was 1; the “Post-emergence action, Lolium” value turned out to be 2; the “Post-emergence action, Setaria” value came to 2; the “Post-emergence action, Sinapis” value is 1. In addition, in assay [2], the “Post-emergence action, Solanum” value came to 1 and the “Post-emergence action, Stellaria” value is reported as 2.

As to `CCN(CC)CC.COCc1nc(C(F)(F)F)ccc1C(=O)C1=C(O)CC(C)CC1=O` (stereo not shown) [Compound A8-B1101], in assay [1], the “pre-emergence action, Cyperus” value was determined as 2; the “pre-emergence action, Ipomoea” value turned out to be 4; the “pre-emergence action, Setaria” value was 2; the “pre-emergence action, Sinapis” value was 2. In assay [1], the “pre-emergence action, Solanum” value is reported as 1 and the “pre-emergence action, Stellaria” value is 1. In addition, in assay [2], the “Post-emergence action, Ipomoea” value is listed as 2; the “Post-emergence action, Lolium” value stood at 3; the “Post-emergence action, Setaria” value is 2; the “Post-emergence action, Sinapis” value stood at 1. Also, in assay [2], the “Post-emergence action, Solanum” value was 2 and the “Post-emergence action, Stellaria” value came to 2.

On to `Cc1nc(C(F)(F)F)ccc1C(=O)C1=C(O)C(C(C)C)CC(C)C1=O` (stereo not shown) [Compound A2-B49], for which, in assay [1], the “pre-emergence action, Cyperus” value is 2; the “pre-emergence action, Ipomoea” value was determined as 4; the “pre-emergence action, Setaria” value was 2; the “pre-emergence action, Sinapis” value is 2. In assay [1], the “pre-emergence action, Solanum” value was determined as 1 and the “pre-emergence action, Stellaria” value came out at 2. In assay [2], the “Post-emergence action, Ipomoea” value amounted to 2; the “Post-emergence action, Lolium” value is 2; the “Post-emergence action, Setaria” value came out at 2; the “Post-emergence action, Sinapis” value worked out at 1. Further, in assay [2], the “Post-emergence action, Solanum” value is reported as 2 and the “Post-emergence action, Stellaria” value worked out at 2.

As for `Cc1cc(C(=O)C2=C(O)CCCC2=O)c(C)nc1C(F)(F)F` [Compound A184-B1], in assay [1], the “pre-emergence action, Cyperus” value came out at 2; the “pre-emergence action, Ipomoea” value was 4; the “pre-emergence action, Setaria” value was found to be 2; the “pre-emergence action, Sinapis” value was determined as 2. Moreover, in assay [1], the “pre-emergence action, Solanum” value was 1 and the “pre-emergence action, Stellaria” value was determined as 2. For the same compound, in assay [2], the “Post-emergence action, Ipomoea” value is 1; the “Post-emergence action, Lolium” value turned out to be 3; the “Post-emergence action, Setaria” value is reported as 2; the “Post-emergence action, Sinapis” value amounted to 1. Moreover, in assay [2], the “Post-emergence action, Solanum” value amounted to 2 and the “Post-emergence action, Stellaria” value was determined as 2.

With `COCCc1nc(C(F)(F)F)ccc1C(=O)C1=C(O)CCCC1=O` [Compound A9-B1], in assay [1], the “pre-emergence action, Cyperus” value came to 2; the “pre-emergence action, Ipomoea” value is given as 1; the “pre-emergence action, Setaria” value came out at 2; the “pre-emergence action, Sinapis” value was 1. Besides, in assay [1], the “pre-emergence action, Solanum” value is recorded as 1 and the “pre-emergence action, Stellaria” value is recorded as 2. In addition, in assay [2], the “Post-emergence action, Ipomoea” value turned out to be 2; the “Post-emergence action, Lolium” value is listed as 4; the “Post-emergence action, Setaria” value was found to be 2; the “Post-emergence action, Sinapis” value was found to be 2. In addition, in assay [2], the “Post-emergence action, Solanum” value is on record as 2 and the “Post-emergence action, Stellaria” value is reported as 2.

Regarding `Cc1nc(C(F)(F)F)ccc1C(=O)C1=C(O)C(C)(C)CC2(CCC2)C1=O` [Compound A2-C147], in assay [1], the “pre-emergence action, Cyperus” value stood at 2; the “pre-emergence action, Ipomoea” value is recorded as 4; the “pre-emergence action, Setaria” value came out at 2; the “pre-emergence action, Sinapis” value came to 2. In assay [1], the “pre-emergence action, Solanum” value was 2 and the “pre-emergence action, Stellaria” value worked out at 2. Further, in assay [2], the “Post-emergence action, Ipomoea” value worked out at 1; the “Post-emergence action, Lolium” value turned out to be 2; the “Post-emergence action, Setaria” value is 2; the “Post-emergence action, Sinapis” value is listed as 1. Further, in assay [2], the “Post-emergence action, Solanum” value stood at 2 and the “Post-emergence action, Stellaria” value was determined as 2.

Regarding `COCc1nc(C(F)(F)F)ccc1C(=O)C1=C(O)C(C)CCC1=O` (stereo not shown) [Compound A8-B2], in assay [1], the “pre-emergence action, Cyperus” value turned out to be 1; the “pre-emergence action, Ipomoea” value is reported as 3; the “pre-emergence action, Setaria” value was 2; the “pre-emergence action, Sinapis” value stood at 2. Further, in assay [1], the “pre-emergence action, Solanum” value is reported as 1 and the “pre-emergence action, Stellaria” value is on record as 2. In addition, in assay [2], the “Post-emergence action, Ipomoea” value is given as 2; the “Post-emergence action, Lolium” value worked out at 2; the “Post-emergence action, Setaria” value is given as 2; the “Post-emergence action, Sinapis” value is reported as 2. For the same compound, in assay [2], the “Post-emergence action, Solanum” value turned out to be 2 and the “Post-emergence action, Stellaria” value is given as 3.

Regarding `CCC1(C)CC(C)(C)C(=O)C(C(=O)c2ccc(C(F)(F)F)nc2C)=C1O` (stereo not shown) [Compound A2-B91], in assay [1], the “pre-emergence action, Cyperus” value is on record as 1; the “pre-emergence action, Ipomoea” value is reported as 2; the “pre-emergence action, Setaria” value is 1; the “pre-emergence action, Sinapis” value is on record as 2. Also, in assay [1], the “pre-emergence action, Solanum” value worked out at 1 and the “pre-emergence action, Stellaria” value was 2. In assay [2], the “Post-emergence action, Ipomoea” value stood at 1; the “Post-emergence action, Lolium” value is 2; the “Post-emergence action, Setaria” value is on record as 2; the “Post-emergence action, Sinapis” value was 1. For the same compound, in assay [2], the “Post-emergence action, Solanum” value is on record as 2 and the “Post-emergence action, Stellaria” value stood at 2.
